Data taken from US9409884B2 (Rigel Pharmaceuticals, Inc., priority 2012, dated 2016).

Target: AMPK
Assay: AMPK activation, enzyme-linked immunosorbent assay
Type: biochemical
Conditions: Table 8, compounds of Table 1
Method in brief: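 Read-out: ELISA, used to detect compound-driven activation of AMPK.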

| EC50 [nM] | Compound |
| --- | --- |
| < 100 | O=C(NC1CCN(Cc2cccnc2)CC1)c1cc2cc(OC3CCN(c4ccc(C(F)(F)F)cc4)CC3)ccc2o1 [Compound 1-101, N-(1-(pyridin-3-ylmethyl)piperidin-4-yl)-5-(1-(4-(trifluoromethyl)phenyl)piperidin-4-yloxy)benzofuran-2-carboxamide] |
| 100 to 500 | CN(C)c1ccc(CN2CCC(NC(=O)c3ccc(OC4CCN(c5ccc(C(F)(F)F)cc5)CC4)cn3)CC2)cc1 [Compound 1-39, N-(1-(4-(dimethylamino)benzyl)piperidin-4-yl)-5-(1-(4-(trifluoromethyl)phenyl)piperidin-4-yloxy)picolinamide] |
| 100 to 500 | O=S(=O)(NC1CCN(Cc2ccncc2)CC1)c1ccc(OC2CCN(c3ccc(C(F)(F)F)cc3)CC2)nc1 [Compound 1-51, N-(1-(pyridin-4-ylmethyl)piperidin-4-yl)-6-(1-(4-(trifluoromethyl)phenyl)piperidin-4-yloxy)pyridine-3-sulfonamide] |
| 100 to 500 | CN(C(=O)c1cc2cc(OC3CCN(c4ccc(C(F)(F)F)cc4)CC3)ccc2o1)C1CCN(Cc2ccncc2)CC1 [Compound 1-104, N-methyl-N-(1-(pyridin-4-ylmethyl)piperidin-4-yl)-5-(1-(4-(trifluoromethyl)phenyl)piperidin-4-yloxy)benzofuran-2-carboxamide] |
| 500 to 1000 | O=C(NC1CCN(CCc2ccccc2)CC1)c1ccc(OC2CCN(c3ccc(C(F)(F)F)cc3)CC2)cn1 [Compound 1-36, N-(1-phenethylpiperidin-4-yl)-5-(1-(4-(trifluoromethyl)phenyl)piperidin-4-yloxy) picolinamide] |
| < 100 | CS(=O)(=O)c1ccc(CN2CCC(Oc3ccc4oc(C(=O)NC5CCN(Cc6ccc(C#N)cc6)CC5)cc4c3)CC2)cc1 [Compound 1-175, N-(1-(4-cyanobenzyl)piperidin-4-yl)-5-(1-(4-(methylsulfonyl)benzyl)piperidin-4-yloxy)benzofuran-2-carboxamide] |
| 100 to 500 | CC(C)(C)OC(=O)N1CCC(NC(=O)c2ccc(OC3CCN(c4ccc(C(F)(F)F)cc4)CC3)nc2)CC1 [Compound 1-9, tert-butyl 4-(6-(1-(4-(trifluoromethyl)phenyl)piperidin-4-yloxy)nicotinamido) piperidine-1-carboxylate] |
| 100 to 500 | CC(C)(C)OC(=O)N1CC[C@H](NC(=O)c2ccc(OC3CCN(c4ccc(C(F)(F)F)cc4)CC3)cn2)C1 [Compound 1-26, (S)-tert-butyl 3-(5-(1-(4-(trifluoromethyl)phenyl)piperidin-4-yloxy)picolinamido) pyrrolidine-1-carboxylate] |
| 100 to 500 | CC(C)(C)OC(=O)N1CC[C@@H](NC(=O)c2ccc(OC3CCN(c4ccc(C(F)(F)F)cc4)CC3)cn2)C1 [Compound 1-23, (R)-tert-butyl 3-(5-(1-(4-(trifluoromethyl)phenyl)piperidin-4-yloxy)picolinamido) pyrrolidine-1-carboxylate] |
| 100 to 500 | CC(C)(C)OC(=O)N1CCC(NC2CCc3cc(OC4CCN(c5ccc(C(F)(F)F)cc5)CC4)ccc32)CC1 (stereo not shown) [Compound 1-156, tert-butyl 4-(5-(1-(4-(trifluoromethyl)phenyl)piperidin-4-yloxy)-2,3-dihydro-1H-inden-1-ylamino)piperidine-1-carboxylate] |

Same assay, conditions: Table 9, compounds of Table 2

| Compound | EC50 [nM] |
| --- | --- |
| NC(=O)c1ccc(CN2CCc3[nH]c4ccc(C(=O)NC5CCN(Cc6ccncc6)CC5)cc4c3C2)cc1 [Compound 2-45, 2-(4-carbamoylbenzyl)-N-(1-(pyridin-4-ylmethyl)piperidin-4-yl)-2,3,4,5-tetrahydro-1H-pyrido[4,3-b]indole-8-carboxamide] | > 100000 |
| CC(C)(C)OC(=O)N1CCC(NC(=O)c2ccc3[nH]c4c(c3c2)CN(C(=O)OCc2ccccc2)CC4)CC1 [Compound 2-3, benzyl 8-(1-(tert-butoxycarbonyl)piperidin-4-ylcarbamoyl)-3,4-dihydro-1H-pyrido[4,3-b]indole-2(5H)-carboxylate] | 10000 to 50000 |

Same assay, conditions: Table 10, compounds of Table 3

| EC50 [nM] | Compound |
| --- | --- |
| 100 to 1000 | O=C(NC1CCN(Cc2ccncc2)CC1)c1nc2ccc(OC3CCN(c4ccc(C(F)(F)F)cc4)CC3)cc2s1 [Compound 3-15, N-(1-(pyridin-4-ylmethyl)piperidin-4-yl)-6-(1-(4-(trifluoromethyl)phenyl)piperidin-4-yloxy)benzo[d]thiazole-2-carboxamide] |

Same assay, conditions: Table 12, compounds of Table 5

| EC50 [nM] | Compound |
| --- | --- |
| < 1000 | O=C(NC1CCN(Cc2ccccc2)CC1)c1ccc(OC2CCN(Cc3ccc(F)c(F)c3)CC2)c(Cl)c1 [Compound 5-74, N-(1-benzylpiperidin-4-yl)-3-chloro-4-(1-(3,4-difluorobenzyl)piperidin-4-yloxy)benzamide] |

Same assay, conditions: Table 13, compounds of Table 6

| EC50 [nM] | Compound |
| --- | --- |
| < 100 | N#Cc1ccc(CN2CCC(NC(=O)c3cc4cc(NC(=O)[C@H]5CC[C@@H](Oc6ccc(C#N)cc6)CC5)ccc4o3)CC2)cc1 [Compound 6-69, N-(1-(4-cyanobenzyl)piperidin-4-yl)-5-((1s,4s)-4-(4-cyanophenoxy)cyclohexanecarboxamido) benzofuran-2-carboxamide] |
| < 100 | N#Cc1ccc(CN2CCC(NC(=O)c3cc4cc(C(=O)N5CCN(Cc6ccc(-n7cccn7)cc6)CC5)ccc4o3)CC2)cc1 [Compound 6-79, 5-(4-(4-(1H-pyrazol-1-yl)benzyl)piperazine-1-carbonyl)-N-(1-(4-cyanobenzyl)piperidin-4-yl)benzofuran-2-carboxamide] |
| < 100 | CS(=O)(=O)c1cccc(CN2CCN(C(=O)c3ccc4oc(C(=O)NC5CCN(Cc6ccc(C(F)(F)F)cc6)CC5)cc4c3)CC2)c1 [Compound 6-149, 5-(4-(3-(methylsulfonyl)benzyl)piperazine-1-carbonyl)-N-(1-(4-(trifluoromethyl)benzyl)piperidin-4-yl)benzofuran-2-carboxamide] |
| < 100 | N#Cc1ccc(CN2CCC(NC(=O)c3cc4cc(C(=O)N5CCN(Cc6ccc(F)cc6)CC5)ccc4o3)CC2)cc1 [Compound 6-11, N-(1-(4-cyanobenzyl)piperidin-4-yl)-5-(4-(4-fluorobenzyl)piperazine-1-carbonyl)benzofuran-2-carboxamide] |
| < 100 | COc1ccc(N2CCN(C(=O)c3ccc4oc(C(=O)NC5CCN(Cc6ccc(C#N)cc6)CC5)cc4c3)CC2)cc1 [Compound 6-106, N-(1-(4-cyanobenzyl)piperidin-4-yl)-5-(4-(4-methoxyphenyl)piperazine-1-carbonyl)benzofuran-2-carboxamide] |
| < 100 | O=C(Nc1ccc(Oc2ccccc2)cc1)c1cc2cc(C(=O)N3CCN(Cc4ccc(F)cc4)CC3)ccc2o1 [Compound 6-12, 5-(4-(4-fluorobenzyl)piperazine-l-carbonyl)-N-(4-phenoxyphenyl)benzofuran-2-carboxamide] |
| 100 to 1000 | CS(=O)(=O)c1ccc(N2CCN(C(=O)c3ccc4oc(C(=O)NC5CCN(Cc6ccc(C#N)cc6)CC5)cc4c3)CC2)cc1 [Compound 6-87, N-(1-(4-cyanobenzyl)piperidin-4-yl)-5-(4-(4-(methylsulfonyl)phenyl)piperazine-1-carbonyl) benzofuran-2-carboxamide] |

Same assay, conditions: Table 14, compounds of Table 7

| EC50 [nM] | Compound |
| --- | --- |
| 1000 to 10000 | COc1ccc(C(=O)C2CCN(C(=O)c3ccc(C(=O)NC4CCN(Cc5ccc(OC)c(C#N)c5)C[C@H]4F)cn3)CC2)cc1 (stereo partly drawn) [Compound 7-55, N-((3,4-trans)-1-(3-cyano-4-methoxybenzyl)-3-fluoropiperidin-4-yl)-6-(4-(4-methoxybenzoyl)piperidine-1-carbonyl)nicotinamide] |
